These results are taken from US9371295B2, “Compounds for use in the treatment of disorders that are ameliorated by inhibition of HDAC” (IRBM—Science Park S.p.A., priority 2012, dated 2016).

The test system of one data set is K562 cells. The data set can be described thus: Erythroid differentiation of K562 cells by benzidine staining. In kind it is cell-based, human. As to conditions: optimized concentration, mean ± SD of six experiments. The method, then: The biological activity of the compounds of the present application was evaluated by examining the capacity to modulate the expression of γ-globin genes in the human K562 cell line, which is capable of differentiating in the erythroid manner by expressing genes for γ-globin if treated with modifiers of the biological response that are suitable for the purpose (Bianchi et al, J. Haematol., 113, 4, p. 951-961, 2001). The human K562 cells were cultured in RPMI 1640 medium (Sigma, St Louis, Mo., USA) supplemented with 10% foetal bovine serum (FBS; Analitical de Mori, Milan, Italy), 100 units/mL penicillin and 100 μg/mL streptomycin. Cell growth was determined according to cell number/ml, using a cell counter (Coulter Electronics, Hialeah, Fla., USA). For experiments, K562 cell cultures were initiated at 3×10^4/mL and the chemical inducers at the indicated concentrations added. Following 3-5 days incubation without a medium change erythroid differentiation was determined by staining the cells in a solution containing 0.2% benzidine in 0.5 M glacial acetic acid, 10% H2O2. Benzidine positivity indicates the presence of intracellular Hb.
The erythroid differentiation of K562 cells was investigated following treatment with selected compounds of the invention. The effect on cell proliferation was first determined for all tested molecules by culture of K562 cells in the presence of increasing concentration of the compounds. The cell number per sample was then determined after 3, 4 and 5 days. The IC50 values reported in Table 3 for the antiproliferative effect were calculated from the concentration of the compounds necessary to decrease the cell number to 50% of the values obtained in control untreated K562 cell cultures, after a 5 days culture period. Erythroid differentiation was measured by benzidine staining after 5, 6 and 7 days of cell culture and by quantitative reverse transcriptase polymerase-chain reaction (RT-qPCR) to quantify the expression of γ-globin mRNA. Different concentrations of tested compounds were employed because of their differing antiproliferative effects; accordingly, concentrations were chosen to maximize the erythroid induction effect without extensive reduction of cell viability. In Table 3 the % of benzidine positive cells and the increase in γ-globin mRNA assayed by RT-qPCR after 6 days of culture period are reported.
Table 4 reports induction of erythroid differentiation in K562 cells treated with an optimized concentration of the compound 2 in comparison with known inducers. Compound 2 is able to stimulate an increase of the proportion of benzidine-positive (hemoglobin producing) K562 cells. This is associated with an increase of the expression of γ-globin mRNA.

The subject of data set [1] is human γ-globin promoter (EGFP reporter) in K562 cells. The data set can be described thus: HbF activation assay on K562 (EGFP/RFP reporter model system for screening of inducers of fetal hemoglobin). The data set is classed as cell-based. Conditions: 60 hours. In outline: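 K562 cells stably carrying EGFP under the human γ-globin promoter and far-red FP under the β-globin promoter, with the LCR, were seeded at 1000 cells/well. Cells were exposed to compounds (0.25% DMSO final) for 60 h at 37 °C. Fluorescence was read by plate cytometry, normalized to Hoechst nuclei count, which also indicated proliferation or death.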

Another data set concerns the target T1, HDAC1 (Homo sapiens, UniProt Q13547).
T1 construct: made in house
The data set can be described thus: HDAC1 assay (Fluor-de-Lys fluorescent deacetylase assay). The data set is classed as biochemical. Conditions: read-out: hHDAC IC50. In outline: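 Serially diluted compounds were pre-incubated with purified FLAG-tagged HDAC1 (1-2 nM final; from transfected HeLa cells) or HeLa nuclear extract, then given the Fluor-de-Lys acetyl-lysine substrate/developer; deacetylation read as fluorescence. Reactions were stopped with TSA (3 uM final).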

For a further data set, the system named is HDAC in Hela cells. The data set can be described thus: HDAC Hela Cell Based assay.
Data set [2] can be described thus: Rat PK studies, oral dose. The data set is classed as in vivo, Sprague-Dawley rats. Conditions: male, Sprague-Dawley, plasma, po 10 mg/kg. The method, then:
Rats Male Sprague-Dawley rats (250-350 g) were used for the absorption disposition studies. In each rat an indwelling cannula was implanted in the right jugular vein for blood sampling. The surgery was performed under light anaesthesia (Ketamine-Xilazine (85 mg/kg and 2.5 mg/kg respectively i.m.) one day prior the experiment). During the kinetic study, all animals were housed individually in plastic metabolism cages, and were unrestrained throughout the experiment. Compounds (6 mg/mL) were dissolved in 20% DMSO/60% PEG400/20% water for intravenous administration, and dissolved or suspended in 1% methylcellulose for oral administration (2 mg/ml). After an overnight fast, the rats received an i.v. (via caudal vein) or an oral dose of the compound. Blood samples were collected at different times point after dosing. Plasma was separated immediately after blood sampling by centrifugation, and the plasma samples were kept frozen (−20° C.) until assayed by LC/MS/MS.
Analytical procedures: Plasma samples were extracted using Liquid Handling Robot MultiProbe Packard by protein precipitation with acetonitrile. Then the samples were centrifuged (3000 rpm×15 min at 4° C.) and the supernatant transferred and dried under nitrogen. The samples were reconstituted in water/acetonitrile 90/10 and then injected directly into an HPLC column. Sample analyses were performed using a an API 3000 or/and API 2000 or/and API 4000 Mass Spectrometer interfaced via the Turbo Ion Spray (ESI)/APCI to an LC system consisting of an HTS PAL CTC autosampler and an Agilen HP 1100 Binary Pump. The results are calculated using Analyst Software linear regression with 1/x*x weighting. The Assay Precision was calculated for the Quality Controls by Watson Lims database.
Pharmacokinetic Analysis: The plasma clearance (CLp) of the compounds were calculated (using Watson PK program) as the dose divided by the area under the plasma concentration-time curve from time zero to infinity (AUC0-∞). The apparent half-life was estimated from the slope of the terminal phase of the log plasma concentration-time data. The volume of distribution (Vdss) was determined using the following noncompartmental method: Vdss=(Dose IV×AUMC)/(AUC0-∞)2
where AUMC is the total area under the first moment of the drug concentration time curve from time zero to infinity. Bioavailability was estimated as the AUC0-∞ ratio following oral and intravenous administration, normalized for differences in dose.

Data set [3] is described as follows: Intrinsic clearance in pooled rat liver microsomes. The data set is classed as in vitro ADME. Conditions: pH 7.4. How it is done:
Assays were performed in presence of 0.5 mg/ml of microsomal protein, with a NADPH-generating system (1 mM NADP, 2.5 mM glucose 6-phosphate and 2 U/ml glucose 6-phosphate dehydrogenase) in 100 mM potassium phosphate buffer containing 3.3 mM MgCl2 (pH 7.4). Tested compounds were stored in 10 mM DMSO solution and incubated at 1 μM final concentration (final DMSO concentration in incubation less than 0.1%). Microsomes and substrates were preincubated at 37° C. for 5 min and then the enzymatic reactions were initiated by the addition of cofactors and incubated at 37° C. for up to 90 min. Incubations were terminated by the addition of an equivalent volume of cold acetonitrile containing I.S. Control incubations, where the substrate was incubated in the same buffer system containing pRLM without the NADPH-generating system, were also run.
On the technique in general: Microsomes from liver hold many membrane-bound enzymes, among them those of drug oxidation.

Data set [4] is described as follows: Intrinsic clearance in pooled human liver microsomes. In kind it is in vitro ADME. As to conditions: pH 7.4.
A short description of data set [5]: Intrinsic clearance in pooled mouse liver microsomes. The data set is classed as in vitro ADME. As to conditions: pH 7.4.
Data set [6] in a line: Mouse in vivo pharmacokinetics, oral dose. As to conditions: plasma, po 5 mg/kg. How it is done:
Compounds of the invention were evaluated in in vitro and in vivo pharmacokinetic studies.

Structures are written as SMILES.

T1 sequence (Q13547 whole entry): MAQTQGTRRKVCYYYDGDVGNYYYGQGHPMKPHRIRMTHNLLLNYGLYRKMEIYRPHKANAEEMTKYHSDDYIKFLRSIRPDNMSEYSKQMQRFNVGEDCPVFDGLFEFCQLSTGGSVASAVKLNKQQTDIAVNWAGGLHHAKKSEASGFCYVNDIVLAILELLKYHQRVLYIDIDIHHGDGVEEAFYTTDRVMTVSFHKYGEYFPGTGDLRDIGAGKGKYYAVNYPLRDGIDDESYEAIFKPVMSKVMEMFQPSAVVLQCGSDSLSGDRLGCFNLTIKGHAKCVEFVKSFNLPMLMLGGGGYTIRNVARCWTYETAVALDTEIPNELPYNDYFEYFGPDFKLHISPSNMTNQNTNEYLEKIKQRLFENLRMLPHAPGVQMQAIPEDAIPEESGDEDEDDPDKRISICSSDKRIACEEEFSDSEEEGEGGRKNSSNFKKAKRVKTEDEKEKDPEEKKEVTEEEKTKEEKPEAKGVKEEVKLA

Consider `O=c1ccc2ccc3occc3c2o1` [Angelicin, reference compound], for which, in the data set on K562 cells, the “Benzidine positive cells (%)” value was determined as 62 ± 8.5%.

Regarding `CCCC(=O)O` [Butyric acid, reference compound], the “Benzidine positive cells (%)” value in the data set with K562 cells is recorded as 32 ± 6.4%.

Regarding `N.N.[Cl][Pt][Cl]` [Cisplatin, reference compound], the “Benzidine positive cells (%)” value with K562 cells amounted to 63 ± 8.5%.

For orientation: EC50 means the midpoint of the concentration-response curve. Higher therefore signals a need for much substance. One may read the IC50 as the concentration that inhibits the measured activity by half. In general, AUC refers to concentration integrated over time. A high value points to high exposure. As usually defined, the Cmax is the highest concentration seen after dosing. The compound `CCC(=O)CCCCC[C@H](NC(=O)C12CCN(CC1)CC2)c1ncc(-c2cc3ccccc3nc2OC)o1` [Compound 41, (S)-N-(1-(5-(2-methoxyquinolin-3-yl)oxazol-2-yl)-7-oxononyl)quinuclidine-4-carboxamide] showed an EC50 in [1] of over 1000 nM. The 50% inhibitory concentration (IC50) at HDAC1 and in the data set with HDAC in Hela cells was under 100 nM throughout. The compound further registered an AUC in [2] of 10.1 µM·h. Further, the Cmax in data set [2] came to 470 nM.

One may read the microsomal CLint as the capacity of the preparation to metabolise the compound, expressed as a volume cleared per time. A lower microsomal CLint goes with greater metabolic stability. In data set [1], `CCC(=O)CCCCC[C@@H](NC(=O)C1CN(C)C1)c1ncc(-c2cc3ccccc3nc2OC)o1` [Compound 42, (R)-N-(1-(5-(2-methoxyquinolin-3-yl)oxazol-2-yl)-7-oxononyl)-1-methylazetidine-3-carboxamide] returned an EC50 of over 1000 nM. The IC50 is under 100 nM on HDAC1 and 100 to 1000 nM in the data set on HDAC in Hela cells. The microsomal CLint at 1 μM in data set [3] was found to be 21 µL/min/mg; in data set [4], 3 µL/min/mg; in [5], 15 µL/min/mg. The compound also displayed an AUC in data set [6] of 5.93 µM·h. For the same compound, the concentration in [6] peaked (Cmax) at 670 nM.

For `CCC(=O)CCCCC[C@H](NC(=O)C1CN(C)C1)c1ncc(-c2cc3ccccc3[nH]c2=O)o1` [Compound 44, (S)-1-methyl-N-(7-oxo-1-(5-(2-oxo-1,2-dihydroquinolin-3-yl)oxazol-2-yl)nonyl)azetidine-3-carboxamide], in data set [1], the EC50 was in the range of 100 to 1000 nM. Besides, the IC50 at HDAC1 and in the data set on HDAC in Hela cells was under 100 nM in each case. For the same compound, the microsomal CLint at 1 μM in data set [3] amounted to 17 µL/min/mg; in data set [4], 11 µL/min/mg; in [5] it was 11 µL/min/mg.

Consider `CCC(=O)CCCCC[C@H](NC(=O)c1csnn1)c1ncc(-c2cc3ccccc3nc2OC)o1` [Compound 99, (S)-N-(1-(5-(2-methoxyquinolin-3-yl)oxazol-2-yl)-7-oxononyl)-1,2,3-thiadiazole-4-carboxamide], for which the EC50 in data set [1] is over 1000 nM. Besides, the figures for the IC50 on HDAC1 and in the data set on HDAC in Hela cells were under 100 nM and 100 to 1000 nM, respectively.

As for `CCC(=O)CCCCC[C@H](NC(=O)c1ccns1)c1ncc(-c2cc3ccccc3nc2OC)o1` [Compound 100, (S)-N-(1-(5-(2-methoxyquinolin-3-yl)oxazol-2-yl)-7-oxononyl)isothiazole-5-carboxamide], in data set [1], the EC50 lay within 100 to 1000 nM. The values for the concentration for half-maximal inhibition (IC50) at HDAC1 and in the data set with HDAC in Hela cells were under 100 nM and 100 to 1000 nM, respectively.

Compound `CCC(=O)CCCCC[C@H](NC(=O)c1snnc1C)c1ncc(-c2cc3ccccc3nc2OC)o1` [Compound 101, (S)-N-(1-(5-(2-methoxyquinolin-3-yl)oxazol-2-yl)-7-oxononyl)-4-methyl-1,2,3-thiadiazole-5-carboxamide] displayed an EC50 in [1] of over 1000 nM. Moreover, the IC50 on HDAC1 is under 100 nM; with HDAC in Hela cells it was 100 to 1000 nM.

For `CCC(=O)CCCCC[C@H](NC(=O)C(C)n1cccn1)c1ncc(-c2cc3ccccc3nc2OC)o1` (stereo partly drawn) [Compound 102, N-((S)-1-(5-(2-methoxyquinolin-3-yl)oxazol-2-yl)-7-oxononyl)-2-(1H-pyrazol-1-yl)propanamide], the EC50 in data set [1] is over 1000 nM. For the same compound, the IC50 at HDAC1 was under 100 nM; with HDAC in Hela cells, 100 to 1000 nM.

As to `CCC(=O)CCCCC[C@H](NC(=O)c1csc(CN(C)C)n1)c1ncc(-c2cc3ccccc3nc2OC)o1` [Compound 103, (S)-2-((dimethylamino)methyl)-N-(1-(5-(2-methoxyquinolin-3-yl)oxazol-2-yl)-7-oxononyl)thiazole-4-carboxamide], the EC50 in data set [1] is over 1000 nM. For the same compound, the concentration for half-maximal inhibition (IC50) at HDAC1 and in the data set on HDAC in Hela cells was 100 to 1000 nM each time.

In data set [1], `CCC(=O)CCCCC[C@H](NC(=O)C1CCCN(C)C1)c1ncc(-c2cc3ccccc3nc2OC)o1` (stereo partly drawn) [Compound 104, N-((S)-1-(5-(2-methoxyquinolin-3-yl)oxazol-2-yl)-7-oxononyl)-1-methylpiperidine-3-carboxamide] gave an EC50 of 100 to 1000 nM. Further, the IC50 on HDAC1 and in the data set on HDAC in Hela cells was under 100 nM throughout.

For `CCC(=O)CCCCC[C@H](NC(=O)C1(N(C)C)CCCC1)c1ncc(-c2cc3ccccc3nc2OC)o1` [Compound 105, (S)-1-(dimethylamino)-N-(1-(5-(2-methoxyquinolin-3-yl)oxazol-2-yl)-7-oxononyl)cyclopentanecarboxamide], the EC50 in [1] was in the range of 100 to 1000 nM. Besides, the IC50 on HDAC1 and in the data set on HDAC in Hela cells was under 100 nM each time.

Turning to `CCC(=O)CCCCC[C@H](NC(=O)CC1CN(C)C1)c1ncc(-c2cc3ccccc3nc2OC)o1` [Compound 108, (S)-N-(1-(5-(2-methoxyquinolin-3-yl)oxazol-2-yl)-7-oxononyl)-2-(1-methylazetidin-3-yl)acetamide], the EC50 in [1] was in the range of 100 to 1000 nM. In addition, the IC50 at HDAC1 and with HDAC in Hela cells was under 100 nM in each case.

Consider `Nc1ccn([C@@H]2O[C@H](CO)[C@@H](O)[C@@H]2O)c(=O)n1` [Cytosin arabinoside, reference compound], for which, in the data set with K562 cells, the “Benzidine positive cells (%)” value was 75 ± 5.4%.

On to `NC(=O)NO` [Hydroxyurea, reference compound], for which the “Benzidine positive cells (%)” value with K562 cells worked out at 30 ± 7.5%.

Take `Oc1ccc(C=Cc2cc(O)cc(O)c2)cc1` [Resveratrol, reference compound]: the “Benzidine positive cells (%)” value in the data set with K562 cells amounted to 70 ± 8.5%.
